Laboratory results published in patent US11191820B2, “Method for inducing early T memory response with short peptides anti-tumor vaccine” (OSE IMMUNOTHERAPEUTICS, priority 2015, dated 2021).

Columns and labels:
Type in all cases: in vivo, human
central memory T cells [1] = experiment: Cultured IFN-γ ELISPOT after 10-day in vitro stimulation of PBMC, phase 1/2 NSCLC trial of OSE-2101; parameters: key to net SFC of vaccine positive CTL responses: —, indicates SFC response did not meet criteria and vaccine response was negative; conditions: for No. Positive Responses: 6 NSCLC patients
Summary of the method: (§1)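 Patient PBMC (pre-treatment, Week 9, Week 18, after s.c. dosing every 3 weeks) were stimulated 10 days with 10 μg/ml of each epitope plus rIL-2 10 U/ml on days 1, 4 and 7. Cells were then tested 20 h with irradiated autologous PBMC and 10 μg/ml vaccine or wild-type peptide. Net SFC per 5×10^4 cells, irrelevant HBV peptide subtracted.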

central memory T cells [2] = experiment: Central memory T cell cultured ELISPOT, phase 2 trial in advanced NSCLC
Summary of the method: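 Patient PBMC were pre-stimulated for 10 days with 10 μg/ml peptide plus rIL2 (10 U/ml, days 1, 4, 7), then replated at 5×10^4/well with irradiated autologous PBMC and 10 μg/ml peptide, and SFC were counted. A response was positive if >5 SFC above, and > mean+2 SD of, the irrelevant HBV epitope, and twofold the pre-vaccination response plus 2 SD.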

central memory T cells [3] = experiment: Cultured IFN-γ ELISPOT after 10-day in vitro stimulation of PBMC, phase 1/2 colon cancer trial of OSE-2101; parameters: key to net SFC of vaccine positive CTL responses: —, indicates SFC response did not meet criteria and vaccine response was negative
Summary of the method: as §1

## SMPPPGTRV [p53.149M2 A]
Central memory T cells [1]; Week 9
  No. Positive Responses: 0
Central memory T cells [1]; Week 18
  No. Positive Responses: 0
Central memory T cells [1]; NSCLC patient 201, Week 9
  net SFC of vaccine positive CTL responses: —
Central memory T cells [1]; NSCLC patient 201, Week 18
  net SFC of vaccine positive CTL responses: —
Central memory T cells [1]; NSCLC patient 502, Week 9
  net SFC of vaccine positive CTL responses: —
Central memory T cells [1]; NSCLC patient 502, Week 18
  net SFC of vaccine positive CTL responses: —
Central memory T cells [1]; NSCLC patient 504, Week 9
  net SFC of vaccine positive CTL responses: —
Central memory T cells [1]; NSCLC patient 504, Week 18
  net SFC of vaccine positive CTL responses: —
Central memory T cells [1]; NSCLC patient 505, Week 9
  net SFC of vaccine positive CTL responses: —
Central memory T cells [1]; NSCLC patient 505, Week 18
  net SFC of vaccine positive CTL responses: —
Central memory T cells [1]; NSCLC patient 532, Week 9
  net SFC of vaccine positive CTL responses: —
Central memory T cells [1]; NSCLC patient 532, Week 18
  net SFC of vaccine positive CTL responses: —
Central memory T cells [1]; NSCLC patient 651, Week 9
  net SFC of vaccine positive CTL responses: —
Central memory T cells [1]; NSCLC patient 651, Week 18
  net SFC of vaccine positive CTL responses: —
Central memory T cells [2]; phase 2, month 9
  % of patients with positive CTL/central memory T cell response: 0%
  patients with positive CTL/central memory T cell response / patients tested: 0/7
Central memory T cells [2]; phase 2, month 12
  % of patients with positive CTL/central memory T cell response: 0%
  patients with positive CTL/central memory T cell response / patients tested: 0/4
Central memory T cells [2]; phase 2, week 9
  % of patients with positive CTL/central memory T cell response: 9%
  patients with positive CTL/central memory T cell response / patients tested: 1/11
Central memory T cells [2]; phase 2, week 18
  % of patients with positive CTL/central memory T cell response: 0%
  patients with positive CTL/central memory T cell response / patients tested: 0/11
Central memory T cells [2]; phase 2, week 30
  % of patients with positive CTL/central memory T cell response: 0%
  patients with positive CTL/central memory T cell response / patients tested: 0/6
Central memory T cells [3]; 10 colon patients, Week 9
  Mean SFC: 18.0 SFC per 50,000 cells
Central memory T cells [3]; colon patient 551, Week 9
  net SFC of vaccine positive CTL responses: —
Central memory T cells [3]; colon patient 551, Week 18
  net SFC of vaccine positive CTL responses: —
Central memory T cells [3]; colon patient 601, Week 9
  net SFC of vaccine positive CTL responses: —
Central memory T cells [3]; colon patient 601, Week 18
  net SFC of vaccine positive CTL responses: —
Central memory T cells [3]; colon patient 602, Week 9
  net SFC of vaccine positive CTL responses: —
Central memory T cells [3]; colon patient 602, Week 18
  net SFC of vaccine positive CTL responses: —
Central memory T cells [3]; colon patient 603, Week 9
  net SFC of vaccine positive CTL responses: —
Central memory T cells [3]; colon patient 603, Week 18
  net SFC of vaccine positive CTL responses: —
Central memory T cells [3]; colon patient 604, Week 9
  net SFC of vaccine positive CTL responses: —
Central memory T cells [3]; colon patient 604, Week 18
  net SFC of vaccine positive CTL responses: —
Central memory T cells [3]; colon patient 605, Week 9
  net SFC of vaccine positive CTL responses: —
Central memory T cells [3]; colon patient 605, Week 18
  net SFC of vaccine positive CTL responses: —
Central memory T cells [3]; colon patient 606, Week 9
  net SFC of vaccine positive CTL responses: —
Central memory T cells [3]; colon patient 606, Week 18
  net SFC of vaccine positive CTL responses: —
Central memory T cells [3]; colon patient 607, Week 9
  net SFC of vaccine positive CTL responses: —
Central memory T cells [3]; colon patient 607, Week 18
  net SFC of vaccine positive CTL responses: —
Central memory T cells [3]; colon patient 608, Week 9
  net SFC of vaccine positive CTL responses: 18.0 SFC per 50,000 cells
Central memory T cells [3]; colon patient 608, Week 18
  net SFC of vaccine positive CTL responses: —
Central memory T cells [3]; colon patient 609, Week 9
  net SFC of vaccine positive CTL responses: —
Central memory T cells [3]; colon patient 609, Week 18
  net SFC of vaccine positive CTL responses: —
